Values of other authors, collected in patent publication US20110053879A1, “[…] AND AMRUBICIN TO TREAT LUNG CANCER” (priority 2008, published 2011).

Legend:
[1] = phase II trial
stage III or IV non-SCLC = details: 45 mg/m^2 on days 1 to 3; chemotherapy-naive patients; intent-to-treat analysis
extensive-stage SCLC = details: 45 mg/m^2 on days 1 to 3; chemotherapy-naive patients; intent-to-treat analysis
[2] = preclinical studies
human tumor xenografts = details: several human tumor xenografts implanted in nude mice
[3] = a specific crystalline form (JP 11-222497 A)

Row | Structure (SMILES) | grade 3 or 4 anemia [1] [%] | grade 3 or 4 anorexia [1] [%] | grade 3 or 4 leukopenia [1] [%] | grade 3 or 4 nausea/vomiting [1] [%] | grade 3 or 4 neutropenia [1] [%] | grade 3 or 4 thrombocytopenia [1] [%] | response rate, stage III or IV non-SCLC (stage III or IV non-SCLC) [%] | strength as a DNA intercalator relative to doxorubicin (weaker) (DNA) | response rate, extensive-stage SCLC (extensive-stage SCLC) [%] | cardiotoxicity [2] | antitumor activity compared with doxorubicin (human tumor xenografts) | heat stability [3]
1 | CC(=O)[C@]1(N)Cc2c(O)c3c(c(O)c2[C@@H](O[C@H]2C[C@H](O)[C@H](O)CO2)C1)C(=O)c1ccccc1C3=O [amrubicin, (7S,9S)-9-Acetyl-9-amino-7-[(2-deoxy-β-D-erythro-pentapyranosyl)oxy]-7,8,9,10-tetrahydro-6,11-dihydroxy-5,12-nephthacenedione] | 23.0 | 4.9 | 52.5 | 4.9 | 72.1 | 14.8 | 25 | approximately 1/10 | 79 | almost no cardiotoxicity | more potent antitumor activity than doxorubicin | 
2 | CC(O)[C@]1(N)Cc2c(O)c3c(c(O)c2[C@@H](O[C@H]2C[C@H](O)[C@H](O)CO2)C1)C(=O)c1ccccc1C3=O (stereo partly shown) [amrubicinol] |  |  |  |  |  |  |  | approximately 1/10 |  |  |  | 
3 | CC(=O)[C@]1(N)Cc2c(O)c3c(c(O)c2[C@@H](O[C@H]2C[C@H](O)[C@H](O)CO2)C1)C(=O)c1ccccc1C3=O.Cl [Amrubicin hydrochloride] |  |  |  |  |  |  |  |  |  |  |  | excellent in heat stability
